Results taken from patent US8343531B2, “Composition containing peptide as active ingredient” (Meiji Co., Ltd., priority 2006, dated 2013).
Residues, ends and D or L forms follow the SMILES beside them.

How the values were obtained:
Rat L6 myotubes = assay: Rate of glucose uptake into muscle cells; type: cell-based; conditions: 1 mM dipeptide, 3 hours, then 8 mM 2-deoxyglucose 10 minutes; average ± SD; control 1.21 ± 0.07
Method: Rat L6 myotubes were cultured in an Eagle medium containing 10% bovine serum (α-MEM) in a Petri dish coated with type 1 collagen in 5% CO2/95% O2. The cells were recovered by trypsin treatment in a usual manner and seeded at a density of 50,000 cells/well on a 48-well plate coated with type 1 collagen, and cultured for 3 days to make the cells confluent. After the medium was removed, 500 μL of an Eagle medium containing 2% bovine serum (α-MEM) was added to each well, and then the cells were cultured for 5 days thereby inducing differentiation. Each well was washed with 500 μL KRH buffer (136 mM NaCl, 4.7 mM KCl, 1.25 mM CaCl2, 1.25 mM MgSO4.7H2O, 20 mM Hepes, 1 mg/mL BSA, pH 7.4) carefully such that the cells were not detached. Then, […] KRH buffer containing 1 mM Ile-Leu, Ile-Trp, Ala-Leu, Val-Leu, Gly-Leu, Asp-Leu, Lys-Ile, Leu-Leu, Ile-Ile, Leu-Ile, Ile-Asn, Leu-Ala, Leu-Glu, Leu-Val or Ile-Val (Kokusan Chemical Co., Ltd.) was added to each well and reacted for 3 hours with the cells. Thereafter, the KRH buffer was removed, and […] buffer containing 8 mM 2-deoxyglucose was added to each well and reacted for accurately 10 minutes with for the cells. The reaction was terminated with […] 0.1 N NaOH, followed by neutralization with an equal volume of 0.1 N HCl, and then the amount of 2-deoxyglucose 6-phosphate in the cells was quantified by an enzymatic method to determine the rate of glucose uptake.

[1] = tested on: isolated epitrochlearis muscles; assay: Rate of glucose uptake into isolated muscles; type: cell-based, Wister rats; conditions: 1 mM dipeptide, 30 min at 30° C., then 8 mM 2-deoxyglucose 20 min; average ± SD; control 0.95 ± 0.10
Method: Epitrochlearis muscles were excised from male Wister rats (each weighing 120 g) (16 rats) under pentobarbital anesthesia carefully so as not to hurt the epitrochlearis muscles. The epitrochlearis muscles were incubated at 35° C. for 1 hour in KRH buffer (136 mM NaCl, 4.7 mM KCl, 1.25 mM CaCl2, 1.25 mM MgSO4.7H2O, 20 mM Hepes, 1 mg/mL BSA, pH 7.4; referred to hereinafter as KRH buffer) containing 0.1% bovine serum albumin (BSA), 8 mM glucose and 32 mM mannitol, in 5% CO2/95% O2. Thereafter, the epitrochlearis muscles were removed and incubated (8 samples per group) at 30° C. for 30 minutes in KRH buffer containing 0.1% BSA, 40 mM mannitol, and 1 mM Ile-Leu (Kokusan Chemical Co., Ltd.), 1 mM Ile-Trp (Kokusan Chemical Co., Ltd.), or the milk whey protein hydrolysate containing 1 mM leucine in terms of amino acid, produced in Production Example 1, in 5% CO2/95% O2. Then, the epitrochlearis muscles were removed and incubated at 30° C. for accurately 20 minutes in KRH buffer containing 0.1% BSA, 32 mM mannitol and 8 mM 2-deoxyglucose, in 5% CO2/95% O2. […] Thereafter, the frozen epitrochlearis muscles were homogenized in 0.3 M perchloric acid aqueous solution, and after the resulting suspension was neutralized, the amount of 2-deoxyglucose-6-phosphate in the muscles was quantified by an enzymatic method to determine the rate of glucose uptake.

[2] = tested on: isolated epitrochlearis muscles; assay: Influence of PI3K inhibitor and GLUT-4 inhibitor on the rate of glucose uptake into isolated muscles; type: cell-based, Wister rats; conditions: 1 mM Ile-Leu alone; average ± SD; control 0.95 ± 0.10
Method: Epitrochlearis muscles were excised from male Wister rats (each weighing 120 g) (8 samples per group) under pentobarbital anesthesia carefully so as not to hurt the epitrochlearis muscles. The epitrochlearis muscles were incubated at 35° C. for 1 hour in KRH buffer containing 0.1% BSA, 8 mM glucose and 32 mM mannitol, in 5% CO2/95% O2. Thereafter, the epitrochlearis muscles were removed and incubated at 30° C. for 30 minutes in KRH buffer containing 0.1% BSA, 40 mM mannitol, and 1 mM Ile-Leu (Kokusan Chemical Co., Ltd.), 1 mM Ile-Leu+10 μM LY294002 (Sigma) or 1 mM Ile-Leu+70 μM cytochalasin B (Sigma) in 5% CO2/95% O2. Then, the epitrochlearis muscles were removed and incubated at 30° C. for accurately 20 minutes in KRH buffer containing 0.1% BSA, 32 mM mannitol and 8 mM 2-deoxyglucose, in 5% CO2/95% O2. Immediately after incubation for accurately 20 minutes, the epitrochlearis muscles were frozen with liquid nitrogen. Thereafter, the frozen epitrochlearis muscles were homogenized in 0.3 M perchloric acid aqueous solution, and after the resulting suspension was neutralized, the amount of 2-deoxyglucose 6-phosphate in the muscles was quantified by an enzymatic method to determine the rate of glucose uptake.

Wister rats = assay: Oral glucose tolerance test; type: in vivo; conditions: 0.1 g/kg BW oral with glucose 2.0 g/kg BW
Method: Male Wister rats each weighing about 360 g (6 rats per group) were used. The rats were fasted for 18 hours and then administered with 30% glucose aqueous solution in a dose of 2.0 g/kg body weight (BW). […] After 30, 60, 90, 120 and 180 minutes, blood was collected from a rat tail vein and measured for its blood glucose level with Diasensor (manufactured by ARKRAY, Inc.).

| Compound | Rate of glucose uptake into muscle cells (Rat L6 myotubes) [nmol/min/well] | further results |
| --- | --- | --- |
| Gly-Leu | 1.81 ± 0.04 |  |
| Asp-Leu | 1.81 ± 0.50 |  |
| Ala-Leu | 1.91 ± 0.07 |  |
| Leu-Val | 1.74 ± 0.06 |  |
| Ile-Val | 1.80 ± 0.07 |  |
| Leu-Leu | 1.75 ± 0.05 |  |
| Ile-Asn | 1.92 ± 0.06 |  |
| Leu-Glu | 2.16 ± 0.05 |  |
| Lys-Ile | 2.34 ± 0.06 |  |
| Ile-Trp | 1.91 ± 0.06 | Rate of glucose uptake into isolated skeletal muscles [1]: 1.92 ± 0.31 μmol/min/g muscle |
| CC[C@H](C)[C@H](N)C(=O)N[C@@H](CC(C)C)C(=O)O [Ile-Leu, Isoleucyl leucine] (H-Ile-Leu-OH) | 1.61 ± 0.05 | Rate of glucose uptake into isolated skeletal muscles [2]: 1.88 ± 0.40 μmol/min/g muscle; Blood glucose level (change) (Wister rats; 0 minute, fasted rats, average ± SD): 0 ± 0 mg/100 mL; Blood glucose level (change) (Wister rats; 30 minutes, glucose alone 62 ± 4): 44 ± 8 mg/100 mL; Blood glucose level (change) (Wister rats; 60 minutes, glucose alone 61 ± 4): 57 ± 7 mg/100 mL; Blood glucose level (change) (Wister rats; 90 minutes, glucose alone 57 ± 4): 35 ± 4 mg/100 mL; Blood glucose level (change) (Wister rats; 120 minutes, glucose alone 27 ± 6): 19 ± 3 mg/100 mL; Blood glucose level (change) (Wister rats; 180 minutes, glucose alone 5 ± 1): 1 ± 3 mg/100 mL; Rate of glucose uptake into isolated skeletal muscles [1]: 1.88 ± 0.40 μmol/min/g muscle |
| Val-Leu | 1.76 ± 0.07 |  |
| Leu-Ile | 1.73 ± 0.04 |  |
| Leu-Ala | 2.09 ± 0.08 |  |
| Ile-Ile | 1.88 ± 0.05 |  |
